Converted amounts (≈) assume the structure as drawn.
Legend:
[1] = Oral bioavailability in BALB/c mouse at 5 mg/kg by LC/MS/MS analysis; type: ADME, organism-based; conditions: in vivo
[2] = Aqueous solubility of the compound in PBS buffer at 100 uM after 24 hrs by LC/CLND analysis; type: physicochemical
[3] = Apparent permeability from apical to basolateral side in MDCK cells at 10 uM by LC-MS/MS analysis; type: ADME, cell-based, Canis lupus familiaris; conditions: dog
[4] = Hepatic clearance in CD-1 mouse hepatocytes at 1 uM by LC-MS/MS analysis; type: ADME, cell-based, Liver, Hepatocyte
[5] = Hepatic clearance in CD-1 mouse liver microsomes at 1 uM after 20 to 60 mins by LC-MS/MS analysis; type: ADME, Microsome
[6] = Hepatic clearance in human liver microsomes at 1 uM after 20 to 60 mins by LC-MS/MS analysis; type: ADME, Microsome
[7] = Cmax in BALB/c mouse at 5 mg/kg, po by LC/MS/MS analysis; type: ADME, organism-based; set-up: dose 5 mg/kg, route oral; conditions: in vivo
[8] = Tmax in BALB/c mouse at 5 mg/kg, po by LC/MS/MS analysis; type: ADME, organism-based; set-up: dose 5 mg/kg, route oral; conditions: in vivo
[9] = Half life in BALB/c mouse at 1 mg/kg, iv by LC/MS/MS analysis; type: ADME, organism-based; set-up: dose 1 mg/kg, route intravenous; conditions: in vivo
[10] = Half life in BALB/c mouse at 5 mg/kg, po by LC/MS/MS analysis; type: ADME, organism-based; set-up: dose 5 mg/kg, route oral; conditions: in vivo
[11] = Volume of distribution at steady state in BALB/c mouse at 1 mg/kg, iv by LC/MS/MS analysis; type: ADME, organism-based; set-up: dose 1 mg/kg, route intravenous; conditions: in vivo, read-out: Vdss
[12] = Clearance in BALB/c mouse at 1 mg/kg, iv by LC/MS/MS analysis; type: ADME, organism-based; set-up: dose 1 mg/kg, route intravenous; conditions: in vivo

Nc1ccc(CNC(=O)Nc2ccc(S(=O)(=O)c3ccccc3)cc2)cn1
bioavailability [1]: 31% | solubility at 24 h, 100 µM [2]: 109 µM (≈ 41.7 µg/mL) | Papp A→B at 10 µM [3]: 2.9 ×10⁻⁶ cm/s | CLhep predicted at 1 µM [4]: 12 mL/min/kg | CLhep predicted at 1 µM [5]: 42 mL/min/kg | CLhep predicted at 1 µM [6]: 5 mL/min/kg | Cmax [7]: 2900 nM | Tmax [8]: 0.83 h | half-life [9]: 2.6 h | half-life [10]: 2.7 h | Vd [11]: 0.51 L/kg | clearance [12]: 4.9 mL/min/kg

C[C@@H]1COC[C@@H](C)N1S(=O)(=O)c1ccc(NC(=O)NCc2cccnc2)cc1 (racemic)
CLhep predicted at 1 µM [6]: 17 mL/min/kg

O=C(NCc1cccnc1)Nc1ccc(S(=O)(=O)N2CCC3(CCCN3)CC2)cc1
CLhep predicted at 1 µM [6]: 7 mL/min/kg

COc1ccc(CNC(=O)Nc2ccc(S(=O)(=O)c3ccccc3)cc2)cn1
CLhep predicted at 1 µM [6]: 12 mL/min/kg

O=C(NCc1cnccn1)Nc1ccc(S(=O)(=O)c2ccccc2)cc1
CLhep predicted at 1 µM [6]: 5 mL/min/kg

O=C(NCc1cccnc1)Nc1ccc(S(=O)(=O)N2CCNC(C(F)(F)F)CC2)cc1 (racemic)
CLhep predicted at 1 µM [6]: 18 mL/min/kg

O=C(NCc1cncc(F)c1)Nc1ccc(S(=O)(=O)c2ccccc2)cc1
CLhep predicted at 1 µM [6]: 8 mL/min/kg

O=C(NCc1ccc(Cl)nc1)Nc1ccc(S(=O)(=O)c2ccccc2)cc1
CLhep predicted at 1 µM [6]: 6 mL/min/kg

O=C(NCc1cccnc1)Nc1ccc(S(=O)(=O)N[C@H]2CCC[C@H](O)C2)cc1
solubility at 24 h, 100 µM [2]: 136 µM (≈ 55 µg/mL) | Papp A→B at 10 µM [3]: 0.1 ×10⁻⁶ cm/s | CLhep predicted at 1 µM [4]: 19 mL/min/kg | CLhep predicted at 1 µM [5]: 61 mL/min/kg | CLhep predicted at 1 µM [6]: 4 mL/min/kg

N[C@H]1CC[C@H](NS(=O)(=O)c2ccc(NC(=O)NCc3cccnc3)cc2)CC1
solubility at 24 h, 100 µM [2]: 161 µM (≈ 65 µg/mL) | Papp A→B at 10 µM [3]: 0.2 ×10⁻⁶ cm/s | CLhep predicted at 1 µM [4]: 6.3 mL/min/kg | CLhep predicted at 1 µM [5]: 27 mL/min/kg | CLhep predicted at 1 µM [6]: 5 mL/min/kg

O=C(NCc1cccnc1)Nc1ccc(S(=O)(=O)c2ccccc2)cc1
CLhep predicted at 1 µM [6]: 8 mL/min/kg

Nc1ncc(CNC(=O)Nc2ccc(S(=O)(=O)c3ccccc3)cc2)cn1
CLhep predicted at 1 µM [6]: 3 mL/min/kg

O=C(NCc1cccnc1)Nc1ccc(S(=O)(=O)N2CCC3(CCNCC3)C2)cc1
CLhep predicted at 1 µM [6]: 2 mL/min/kg

O=C(NCc1cccnc1)Nc1ccc(S(=O)(=O)N2C3CCC2COC3)cc1
CLhep predicted at 1 µM [6]: 8 mL/min/kg

O=C(NCc1cccnc1)Nc1ccc(S(=O)(=O)N2C[C@@H]3C[C@H]2CO3)cc1
CLhep predicted at 1 µM [6]: 3 mL/min/kg

O=C(NCc1cccnc1)Nc1ccc(S(=O)(=O)N2CCCNCC2)cc1
CLhep predicted at 1 µM [6]: 6 mL/min/kg

O=C(NCc1cccnc1)Nc1ccc(S(=O)(=O)N2CC3(COC3)C2)cc1
CLhep predicted at 1 µM [6]: 7 mL/min/kg

O=C(NCc1cccnc1)Nc1ccc(S(=O)(=O)N2CCC23COC3)cc1
CLhep predicted at 1 µM [6]: 8 mL/min/kg

O=C(NCc1cccnc1)Nc1ccc(S(=O)(=O)N2CCC3(CCNC3)CC2)cc1
solubility at 24 h, 100 µM [2]: 75 µM (≈ 32.2 µg/mL) | Papp A→B at 10 µM [3]: 0.07 ×10⁻⁶ cm/s | CLhep predicted at 1 µM [4]: 9.2 mL/min/kg | CLhep predicted at 1 µM [5]: 44 mL/min/kg | CLhep predicted at 1 µM [6]: 4 mL/min/kg

CC1CCN(S(=O)(=O)c2ccc(NC(=O)NCc3cccnc3)cc2)CCN1 (racemic)
CLhep predicted at 1 µM [6]: 5 mL/min/kg

O=C(NCc1cccnc1)Nc1ccc(S(=O)(=O)N[C@H]2CC[C@H](O)CC2)cc1
CLhep predicted at 1 µM [6]: 2 mL/min/kg

CCN1CC[C@@H](NS(=O)(=O)c2ccc(NC(=O)NCc3cccnc3)cc2)[C@@H](F)C1
CLhep predicted at 1 µM [6]: 6 mL/min/kg

O=C(NCc1cccnc1)Nc1ccc(S(=O)(=O)N2CCOCC2)cc1
CLhep predicted at 1 µM [6]: 6 mL/min/kg

C[C@@H]1CN(S(=O)(=O)c2ccc(NC(=O)NCc3cccnc3)cc2)C[C@H](C)O1
solubility at 24 h, 100 µM [2]: 112 µM (≈ 45.3 µg/mL) | Papp A→B at 10 µM [3]: 3.1 ×10⁻⁶ cm/s | CLhep predicted at 1 µM [4]: 55 mL/min/kg | CLhep predicted at 1 µM [5]: 81 mL/min/kg | CLhep predicted at 1 µM [6]: 17 mL/min/kg

O=C(NCc1cccnn1)Nc1ccc(S(=O)(=O)c2ccccc2)cc1
CLhep predicted at 1 µM [6]: 3 mL/min/kg

O=C(NCc1cccnc1)Nc1ccc(S(=O)(=O)N[C@@H]2CCNC[C@H]2F)cc1
CLhep predicted at 1 µM [6]: 3 mL/min/kg

O=C(NCc1cncnc1)Nc1ccc(S(=O)(=O)c2ccccc2)cc1
CLhep predicted at 1 µM [6]: 6 mL/min/kg

CC1CNCCN(S(=O)(=O)c2ccc(NC(=O)NCc3cccnc3)cc2)C1 (racemic)
solubility at 24 h, 100 µM [2]: 107 µM (≈ 43.2 µg/mL) | Papp A→B at 10 µM [3]: 0.1 ×10⁻⁶ cm/s | CLhep predicted at 1 µM [4]: 16 mL/min/kg | CLhep predicted at 1 µM [5]: 48 mL/min/kg | CLhep predicted at 1 µM [6]: 8 mL/min/kg

Source: ChEMBL document CHEMBL2390826, “Discovery of potent and efficacious urea-containing nicotinamide phosphoribosyltransferase (NAMPT) inhibitors with reduced CYP2C9 inhibition properties” (Bioorg Med Chem Lett, 2013)
